Drawing on PubChem BioAssay (NCI), this text covers GI50 and TGI for eight molecules.

Experiment in all cases: DTP human tumour cell line panel, 48 h
Test [1] has as its system A498 renal.
For test [2], the system named is A549 NSCLC.
The test system of test [3] is EKVX NSCLC.
For test [4], the system named is K-562 leukemia.
Test [5] relates to MDA-MB-435.
Test [6] relates to OVCAR-5 ovarian.
Test [7] relates to OVCAR-8 ovarian.
For test [8], the system named is SF-268 CNS.
The test system of test [9] is SK-MEL-2 melanoma.
The subject of test [10] is UACC-62 melanoma.

In general, GI50 refers to the concentration that inhibits growth by half. As usually defined, the TGI is the concentration giving total growth inhibition. High values mean lower sensitivity of the cells, low ones greater sensitivity of the cells.

SMILES strings stand for the structures. “And” between values parts separate entries of the source, which are not always exact repeats. Equal entries are not always repeated.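 Step 1: Grow cells in 96-well plates. Step 2: Expose to compound for 48 hours at 5 concentrations. Step 3: Interpolate endpoints linearly; if unreached, use highest concentration. GI50: concentration for 50% inhibition of growth. TGI marks complete inhibition of growth.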

With `CC[C@H](C)[C@H](NC(=O)[C@H]1CCCCN1C)C(=O)N(C)[C@H](C[C@@H](OC(C)=O)c1nc(C(=O)N[C@@H](Cc2ccccc2)C[C@H](C)C(=O)O)cs1)C(C)C`, the GI50 was 0.548 nM and < 1.65 nM in test [1]; 1.53 nM and 1.65 nM in test [2]; 0.979 nM and 1.65 nM in [3]; 0.327 nM and 1.65 nM in test [4]; 0.0749 nM and < 1.65 nM in test [5]; 3.24 nM and 1.65 nM in test [6]. For the same molecule, the GI50 in test [7] was 2.97 nM and 1.65 nM; in [8], 0.834 nM and 1.65 nM; in test [9] it was 0.7 nM. Further, the TGI in [1] is below 1.65 nM; in test [2], above 16500 nM; in [3], above 16500 nM; in [4] it was above 16500 nM; in test [5], 0.386 nM and < 1.65 nM; in test [6], above 16500 nM. For the same molecule, the TGI in test [7], in test [8] and in test [10] was above 16500 nM throughout.

As for `Cc1cc(N2CCN(C)CC2)n2nc(-c3ccc(Cl)cc3)nc2n1`, the TGI in test [1], in [2], in test [3], in [4], in test [5] and in test [6] was above 100000 nM throughout. Besides, the TGI in test [7], in [8], in [9] and in test [10] was above 100000 nM each time.

Turning to `O=C1/C=C/[C@@H](O)[C@@H]2C[C@@H](O)C[C@H]2/C=C/CCC[C@H](C(F)(F)F)O1`, the GI50 was 70.5 nM in test [1]; 2100 nM in test [2]; 1330 nM in [3]; 336 nM in test [4]; 360 nM in test [5]; 933 nM in [6]. Further, the concentration for 50% growth inhibition (GI50) in test [7] was 254 nM; in test [8], 403 nM; in [9], 244 nM; in test [10], 223 nM. The total growth inhibition concentration (TGI) in test [1] was 715 nM; in test [2] it was above 100000 nM; in [3], above 100000 nM; in test [4], above 69100 nM; in test [5], above 44500 nM; in [6], 24700 nM. Further, the TGI in [7] was 9030 nM; in test [8], above 77800 nM; in test [9], 780 nM; in [10], above 35400 nM.

Consider `COc1ccc(N(C)c2nc(N)nc3sc4c(c23)CCCC4)cc1`, for which the GI50 in test [1] is below 10 nM; in [2], below 14.9 nM; in test [3] it was below 10 nM; in [4], below 10 nM; in test [5], below 10 nM; in [6] it was below 12.5 nM. Moreover, the 50% growth inhibitory concentration (GI50) in test [7] is below 17.1 nM; in test [8], below 15.9 nM; in test [9], 44.1 nM; in test [10], below 10 nM. In addition, the concentration for total growth inhibition (TGI) in [1] is below 20.9 nM; in [2], 17300 nM; in [3] it was 18700 nM; in test [4], above 42200 nM; in test [6], 19500 nM; in test [7], 14900 nM. For the same molecule, the total growth inhibition concentration (TGI) stood at 14500 nM in test [8], 17200 nM in test [9] and 15800 nM in test [10].

`CN(CC(=O)N(Cc1ccc(C2CCCCC2)cc1)c1ccc(C(=O)O)cc1)S(=O)(=O)c1c(F)c(F)c(F)c(F)c1F`: the GI50 in test [1] was 2150 nM; in test [2] it was 6590 nM; in test [3], 1630 nM; in test [4], 1930 nM; in test [5], 1750 nM; in [6], 10800 nM. For the same molecule, the GI50 is 2500 nM in test [7], 1850 nM in test [8], 2060 nM in [9] and 1920 nM in test [10]. Also, the TGI in test [1] amounted to 7650 nM; in test [2], 21600 nM; in test [3], 3580 nM; in [4], 5810 nM; in [5] it was 3190 nM; in test [6] it was 23800 nM. The concentration for total growth inhibition (TGI) in test [7] was determined as 5790 nM; in [8] it was 3590 nM; in [9], 3680 nM; in test [10], 3460 nM.

In the case of `CCCCCCCCCCCC[n+]1ccc2ccccc2c1`, the GI50 is 2570 nM in [1]; 1750 nM in test [2]; 400 nM in test [3]; 247 nM in [4]; 387 nM in test [5]; 1340 nM in test [6]. Moreover, the GI50 is 654 nM in [7], 1220 nM in [8], 1500 nM in test [9] and 343 nM in test [10]. For the same molecule, the concentration for total growth inhibition (TGI) in [1] came out at 8760 nM; in test [2] it was 3380 nM; in test [3] it was 1770 nM; in [4], 1960 nM; in test [5] it was 1550 nM; in test [6], 3740 nM. The TGI was found to be 2340 nM in test [7], 2570 nM in test [8], 3880 nM in [9] and 1630 nM in [10].

With `Cc1cc(Cl)nc(N(CCCNc2ccnc3cc(Cl)ccc23)Cc2ccco2)n1`, the GI50 in test [1] was 1550 nM; in [2] it was 3280 nM; in test [3], 2180 nM; in [4], 1400 nM; in test [5], 2310 nM; in test [6], 3120 nM. Also, the GI50 in [7] was 2050 nM; in [8] it was 3830 nM; in [9], 2820 nM; in test [10], 2320 nM. Besides, the TGI in test [1] stood at 7990 nM; in test [2], 13900 nM; in test [3], 7730 nM; in test [4], 5860 nM; in test [5], 7170 nM; in [6], 22600 nM. The TGI in test [7] worked out at 6310 nM; in [8], 31100 nM; in [9], 9190 nM; in test [10], 6800 nM.

Turning to `O=C(COc1cccc(/C=C2\CSc3ccccc3C2=O)c1)Nc1nccs1`, the GI50 is 15300 nM in test [1]; 5730 nM in test [2]; 7210 nM in [3]; 2790 nM in test [4]; 2020 nM in test [5]; 3080 nM in test [6]. Besides, the GI50 in test [7] is 3080 nM; in [8] it was 1760 nM; in [9] it was 1220 nM; in [10] it was 1480 nM. Also, the TGI in test [1] was 28900 nM; in [2] it was 18300 nM; in test [3], 20500 nM; in test [4], above 100000 nM; in [5] it was 4850 nM; in [6], 15500 nM. In addition, the total growth inhibition concentration (TGI) came to 10400 nM in [7], 3350 nM in test [8], 3100 nM in test [9] and 3120 nM in test [10].
